Experimental findings from PubChem BioAssay (NCI) are described below.

Assay in all cases: NCI-60 cell line screen, 48 h
In test [1] the test system is HCT-15 colon.
The subject of test [2] is UO-31 renal.
Test [3] deals with SN12C renal.
The test system of test [4] is PC-3 prostate.
For test [5], the system named is OVCAR-8 ovarian.
In test [6] the test system is OVCAR-5 ovarian.
Test [7] relates to DU-145 prostate.
In test [8] the test system is NCI-H460 lung.
Test [9] has as its system MALME-3M melanoma.
Test [10] has as its system CAKI-1 renal.

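Five compound concentrations were applied to cells in 96-well plates for 48 hours; endpoints were derived by simple linear interpolation of the resulting dose-response curve. GI50: concentration for 50% inhibition of growth. Definition used: TGI = concentration required for complete inhibition of growth.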

For `COc1ccc(C2C3=C(N=C4SC(C(C)=O)=C(C)N42)c2ccccc2CC3)cc1` (stereo not drawn), the TGI in test [1], in [2], in [3], in test [4], in test [5] and in [6] was over 100 µM in each case. This molecule registered a TGI in test [7] of over 100 µM.

Turning to `O=C(COc1ccc(OCC(=O)N2C(=O)CC(=O)N(c3ccc(Cl)cc3)C2=S)cc1)N1C(=O)CC(=O)N(c2ccc(Cl)cc2)C1=S`, the TGI in test [1], in test [2], in test [3], in [4], in [6] and in test [7] was over 100 µM in each case. Moreover, the TGI in test [8] is over 100 µM; in test [9] it was 93.5 µM.

Consider `Cc1cc2[nH]c3c(C#N)c(-c4ccccc4)c(N=Nc4ccc(F)cc4)c(=O)n3c2cc1C`, for which the TGI in test [1], in test [2], in test [10], in test [3], in test [4] and in [6] was over 100 µM in each case. This molecule came in with a TGI in [8] of over 100 µM.

In the case of `C#CC[C@@]12CC(=O)C[C@@H]1CCC1(C2)OCCO1` (tested in a mixture with another compound), the TGI in test [1], in [2], in test [3], in test [5], in test [6] and in [8] was over 100 µM throughout. The same molecule gave a TGI in test [9] of over 100 µM.

For the molecule `Clc1sc(Cl)c2c1[C@@H](Cl)C[C@@H]2Cl`, the TGI in test [1], in test [2], in test [10], in test [3], in test [5] and in [6] was over 100 µM each time. For the same molecule, the TGI in test [7], in test [8] and in test [9] was over 100 µM in each case.

As for `O=C(NNC(=S)Nc1ccccc1)c1nsc2ccccc12`, the TGI is over 100 µM in test [1]; 75.4 µM in test [2]; over 100 µM in test [3]; over 100 µM in [5]; over 100 µM in test [6]; over 100 µM in test [8].

`O=C1CCCNn2c(nc3ncccc3c2=O)N1`: the TGI in [1], in test [2], in [10], in [4], in test [5] and in test [6] was over 100 µM throughout. For the same molecule, the TGI in [8] and in [9] was over 100 µM each time.

With `O=C1COc2cc(N3CCN(c4cccc(C(F)(F)F)c4)CC3)ccc2N1`, the TGI in test [1], in [2], in [10], in test [3], in test [4] and in test [5] was over 100 µM throughout. Besides, the TGI in [6], in test [7] and in test [8] was over 100 µM in each case.

Regarding `O=C(O)CCC(=O)OCN1C(=O)C2C3C=CC(C2C1=O)C1C2C(=O)N(COC(=O)CCC(=O)O)C(=O)C2C31` (stereo not drawn), the TGI in [1] was over 57 µM; in test [2], over 100 µM; in [10] it was over 100 µM; in test [3], over 100 µM; in [5] it was over 100 µM; in [6], over 100 µM. For the same molecule, the TGI was over 54.5 µM in test [8] and over 100 µM in test [9].

`C/C=C(\C)C(=O)OC1CC(OC(C)=O)C2(C(=O)OC)COC3C2C1(C)C1C2(C(=O)OC)OCC1(C3O)C1(O)C3CC(C4(O)C=COC4O3)C1(C)O2` (stereo not drawn): the TGI in test [1], in [2], in test [10], in test [3], in [4] and in test [5] was over 100 µM throughout. Besides, the TGI in test [6], in test [7] and in test [8] was over 100 µM in each case.

With `COC(C/C(=C/CO[Si](C(C)C)(C(C)C)C(C)C)C(=O)N(COCC[Si](C)(C)C)c1ccccc1I)OC`, the TGI in test [1] was over 100 µM; in test [2], over 100 µM; in test [10], over 100 µM; in test [3], over 100 µM; in test [4], 83.6 µM; in test [5], over 100 µM. Further, the TGI was 87.2 µM in test [6], over 100 µM in test [7] and over 100 µM in [8].

With `Cc1cn(C2CCC(CO)(CF)O2)c(=O)[nH]c1=O` (stereo not drawn), the TGI in test [1], in test [2], in test [10], in [3], in test [4] and in [5] was over 100 µM each time. Also, the TGI in test [6], in [7] and in test [8] was over 100 µM in each case.

Regarding `Cc1ccc(S(=O)(=O)NC(CCC(=O)NNc2ccccc2)C(=O)NNc2ccccc2)cc1` (stereo not drawn), the TGI in test [1], in [2], in test [10], in test [4], in test [5] and in [6] was over 100 µM in each case. Besides, the TGI was 51.6 µM in [8] and over 100 µM in test [9].

As to `Cc1c(CNc2ccc(C(=O)NC(CCCNC(=O)c3ccccc3C(=O)O)C(=O)O)cc2)cnc2nc(N)nc(N)c12` (stereo not drawn), the TGI in test [1], in test [3], in [4], in test [6] and in test [7] was over 100 µM in each case. Moreover, the GI50 in test [4] is under 0.0001 µM.

As to `O=C(CCN1CCOCC1)/C(=C/c1ccccc1)c1ccccc1`, the TGI is 5.98 µM in [1]; 28.1 µM in [2]; 16.9 µM in [10]; 14.5 µM in [3]; 4.1 µM in test [5]; 30.4 µM in test [6]. Further, the TGI in [8] is 23.1 µM; in test [9], 8.74 µM.
